Among the test systems are SF-539 CNS; KM12 colon; NCI-H522 lung; SR leukemia; NCI-H23 lung; MALME-3M melanoma; UACC-257 melanoma; SK-MEL-5 melanoma; A498 renal; SK-OV-3 ovarian.
What all share (experiment): NCI-60 cell line screen, 48 h

The values below come from PubChem BioAssay (NCI).

Molecules are shown by their SMILES.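 Cultured in 96-well plates, cells were exposed to test compound for 48 hours across five concentrations. Here, GI50 denotes the concentration required for 50% inhibition of growth. At the TGI there is no net growth.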

In the case of `O=c1oc2ccc(Cl)cc2c(=O)n1-c1ccc(I)cc1F`, the GI50 in the assay on SF-539 CNS is 0.231 µM; with KM12 colon, 2.21 µM; in the assay with NCI-H522 lung, 0.111 µM; in the assay with SR leukemia, 0.228 µM; in the assay on NCI-H23 lung, 0.169 µM; in the assay with MALME-3M melanoma, 0.158 µM. Besides, the GI50 in the assay with UACC-257 melanoma was 0.137 µM; in the assay on SK-MEL-5 melanoma it was 0.095 µM; in the assay on A498 renal, 0.055 µM; with SK-OV-3 ovarian, 0.451 µM. Moreover, the TGI in the assay on SF-539 CNS was determined as 2.69 µM; in the assay with KM12 colon it was 5.55 µM; in the assay on NCI-H522 lung, 1.83 µM; with SR leukemia, 5.97 µM; in the assay on NCI-H23 lung it was 1.5 µM; in the assay on MALME-3M melanoma, 0.813 µM. For the same compound, the TGI was 1.61 µM with UACC-257 melanoma, 0.279 µM in the assay on SK-MEL-5 melanoma, 0.182 µM in the assay on A498 renal and 4.31 µM in the assay with SK-OV-3 ovarian.
Take `CN(C)c1ccc(N=Nc2c([O-])ccc3ccccc23)cc1.[C-]#[O+].[C-]#[O+].[Ir]`: the GI50 is 16.3 µM in the assay with SF-539 CNS; above 100 µM in the assay on KM12 colon; 7.83 µM with NCI-H522 lung; 17.9 µM in the assay on SR leukemia; 19.4 µM in the assay with NCI-H23 lung; 15.7 µM in the assay with MALME-3M melanoma. For the same compound, the GI50 was 5.71 µM in the assay with UACC-257 melanoma, 24.9 µM in the assay on SK-MEL-5 melanoma, above 100 µM in the assay with A498 renal and above 100 µM with SK-OV-3 ovarian. Further, the TGI with SF-539 CNS is 25.6 µM; with KM12 colon, above 100 µM; in the assay on NCI-H522 lung, 23.5 µM; with SR leukemia it was 57.7 µM; with NCI-H23 lung it was 54.9 µM; with MALME-3M melanoma, 33.4 µM. Also, the TGI with UACC-257 melanoma was 36 µM; in the assay with SK-MEL-5 melanoma, above 57.7 µM; in the assay with A498 renal, above 100 µM; in the assay with SK-OV-3 ovarian it was above 100 µM.
With `Nc1nc(Nc2cccc(F)c2)nc2ccccc12`, the GI50 in the assay with SF-539 CNS is 16.8 µM; in the assay on KM12 colon it was 18.1 µM; in the assay on NCI-H522 lung, 23.9 µM; in the assay on SR leukemia, 24.7 µM; in the assay with NCI-H23 lung, 24.1 µM; in the assay on MALME-3M melanoma, 18.6 µM. Moreover, the GI50 in the assay on UACC-257 melanoma is 17.4 µM; with SK-MEL-5 melanoma, 14.5 µM; in the assay with A498 renal, 1.4 µM; with SK-OV-3 ovarian, 35.3 µM. The TGI in the assay with SF-539 CNS is 34.2 µM; in the assay on KM12 colon, 42.4 µM; with NCI-H522 lung, 54 µM; with SR leukemia, 80.7 µM; in the assay on NCI-H23 lung, above 100 µM; with MALME-3M melanoma, 37.5 µM. Besides, the TGI was 34.1 µM in the assay on UACC-257 melanoma, 28.3 µM in the assay on SK-MEL-5 melanoma, 44.8 µM in the assay on A498 renal and above 100 µM with SK-OV-3 ovarian.
For the compound `COC(=O)[C@@H]1CCCN1C(=O)[C@@H]1CCCN1C(=O)[C@@H](Cc1c[nH]c2ccccc12)NC(=S)Nc1cc(C(F)(F)F)cc(C(F)(F)F)c1`, the GI50 in the assay on SF-539 CNS was 7.72 µM; in the assay on KM12 colon, 5.45 µM; in the assay with NCI-H522 lung, 3.98 µM; in the assay with SR leukemia it was 2.39 µM; in the assay on NCI-H23 lung, 6.35 µM; with MALME-3M melanoma, 5.17 µM. The GI50 is 4.06 µM with UACC-257 melanoma, 2.13 µM with SK-MEL-5 melanoma, 11.1 µM in the assay with A498 renal and 47.2 µM in the assay on SK-OV-3 ovarian. Moreover, the TGI in the assay with SF-539 CNS was 67.4 µM; in the assay with KM12 colon, above 100 µM; in the assay with NCI-H522 lung it was 26.5 µM; in the assay with SR leukemia, 6.44 µM; in the assay on NCI-H23 lung, above 100 µM; in the assay with MALME-3M melanoma, 24.7 µM. In addition, the TGI in the assay with UACC-257 melanoma was 35.3 µM; in the assay with SK-MEL-5 melanoma, 5.52 µM; with A498 renal, 98.2 µM; in the assay on SK-OV-3 ovarian it was above 100 µM.
Consider `COc1cc(/C=C(/c2ccccc2)[N+](=O)[O-])c(OC)c2c1OCO2`, for which the GI50 is 1.7 µM in the assay on SF-539 CNS; 1.84 µM in the assay with KM12 colon; 1.59 µM in the assay with NCI-H522 lung; 0.334 µM in the assay on SR leukemia; 1.73 µM with NCI-H23 lung; 1.53 µM with MALME-3M melanoma. The GI50 is 1.58 µM with UACC-257 melanoma, 1.75 µM in the assay with SK-MEL-5 melanoma, 1.54 µM in the assay with A498 renal and 2.89 µM with SK-OV-3 ovarian. Further, the TGI in the assay with SF-539 CNS worked out at 3.09 µM; with KM12 colon it was 3.44 µM; with NCI-H522 lung it was 4.03 µM; in the assay on SR leukemia it was 2.65 µM; in the assay on NCI-H23 lung, 3.41 µM; in the assay on MALME-3M melanoma, 3.21 µM. The TGI in the assay with UACC-257 melanoma stood at 3.4 µM; with SK-MEL-5 melanoma, 3.14 µM; in the assay on A498 renal, 3 µM; in the assay with SK-OV-3 ovarian, 8.29 µM.
Turning to `C/C=C(/CCCCNCCCC)[Si](C)(C)C`, the TGI came out at 28.4 µM with SF-539 CNS; 30.6 µM in the assay with KM12 colon; 25.3 µM in the assay on NCI-H522 lung; 35.1 µM in the assay with SR leukemia; 31.9 µM in the assay with NCI-H23 lung; 33.2 µM with MALME-3M melanoma. The TGI with UACC-257 melanoma worked out at 30.3 µM; with SK-MEL-5 melanoma, 26.6 µM; in the assay with A498 renal it was 29.4 µM; with SK-OV-3 ovarian, 33.6 µM.
Turning to `CCCCC[C@H]1C/C=C2/C(=O)C(Cl)=C[C@@H]2C/C=C\CCCC(=O)O[C@@H](CCCCC)C/C=C2/C(=O)C(Cl)=C[C@@H]2C/C=C\CCCC(=O)O1`, the GI50 was 0.518 µM in the assay with SF-539 CNS; 0.388 µM in the assay with KM12 colon; 0.352 µM in the assay on NCI-H522 lung; 0.159 µM in the assay on SR leukemia; 0.34 µM in the assay with NCI-H23 lung; 0.504 µM in the assay on MALME-3M melanoma. In addition, the GI50 was 0.366 µM with UACC-257 melanoma, 0.325 µM with SK-MEL-5 melanoma, 0.465 µM with A498 renal and 0.966 µM in the assay on SK-OV-3 ovarian. The TGI worked out at 1.97 µM in the assay on SF-539 CNS; 0.92 µM in the assay with KM12 colon; 0.78 µM in the assay on NCI-H522 lung; 1.35 µM in the assay with SR leukemia; 0.838 µM in the assay with NCI-H23 lung; 1.85 µM in the assay on MALME-3M melanoma. Further, the TGI with UACC-257 melanoma was found to be 0.932 µM; with SK-MEL-5 melanoma it was 0.659 µM; with A498 renal it was 1.41 µM; in the assay on SK-OV-3 ovarian it was 4.18 µM.
